SMILES strings stand for the structures. Like-named read-outs stand apart in the source and are kept apart here. Some results are limits rather than exact numbers.

The subject of experiment [1] is IFN-β secretion in THP1 cells. Nature of the experiment: IFN-β secretion in THP1 cell culture (5 h). The experiment is classed as cell-based, human. The gist of the method: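 THP1 cells incubated with compound for 5 h at 37 °C, 5% CO2, and secreted IFN-β in supernatant quantified by AlphaLISA. Percent effect normalised to 30 uM cGAMP positive control and 0.3% DMSO. EC50 from 4-parameter fit.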

The target in a further experiment is full-length HAQ STING (Homo sapiens (Human), UniProt Q86WV6, G230A/H232R/R293Q/R71H). As to the kind of experiment: 3H-cGAMP filtration binding assay (HAQ STING). As to conditions: competition with tritiated cGAMP, HAQ STING membrane. The text has this:
The ability of compounds to bind STING is quantified by the ability to compete with tritiated cGAMP ligand for human STING receptor membrane using a radioactive filter-binding assay. The binding assay employs STING receptor obtained from Hi-Five cell membranes overexpressing full-length HAQ STING prepared in-house and tritiated cGAMP ligand also purified in-house.
The ability of compounds to bind STING is quantified by their ability to compete with tritiated cGAMP ligand for human STING receptor membrane using a radioactive filter-binding assay.
The basic HAQ STING filtration assay protocol is as follows:
Compound and membrane then preincubated for 60 min at RT to allow compound binding to equilibrate. Following equilibration, 8 nM of [^3H] c-GAMP ligand was prepared by diluting into assay buffer, and 50 uL of this working stock was then manually added to each well of the assay plate. […] The filter plates were then dried at 55° C. for 30 min using a pressurized VWR oven before 30 uL of Ultima GoldF scintillate was added to each well. Tritium levels for each reaction well were then measured using a PerkinElmer TopCount plate reader.
After normalization to controls, the percent activity for each compound concentration was calculated by measuring the amount of remaining radioactivity. The plot of percent activity versus the log of compound concentration was fit with a 4-parameter dose response equation to calculate EC50 values.

Where [2] appears, read: IFN-β secretion in THP1 cell culture, 5 h, compound at 30 μM, percent activation relative to 2′3′-cGAMP.
[3] abbreviates: read-out: EC50 (nM), 3H-cGAMP filtration binding assay for HAQ STING.
Where [4] appears, read: EC50 (nM), 3H-cGAMP filtration binding assay for HAQ STING.

Chain of full-length HAQ STING (Q86WV6 other isoform, or with tags, fused parts or gaps, stated change not applied): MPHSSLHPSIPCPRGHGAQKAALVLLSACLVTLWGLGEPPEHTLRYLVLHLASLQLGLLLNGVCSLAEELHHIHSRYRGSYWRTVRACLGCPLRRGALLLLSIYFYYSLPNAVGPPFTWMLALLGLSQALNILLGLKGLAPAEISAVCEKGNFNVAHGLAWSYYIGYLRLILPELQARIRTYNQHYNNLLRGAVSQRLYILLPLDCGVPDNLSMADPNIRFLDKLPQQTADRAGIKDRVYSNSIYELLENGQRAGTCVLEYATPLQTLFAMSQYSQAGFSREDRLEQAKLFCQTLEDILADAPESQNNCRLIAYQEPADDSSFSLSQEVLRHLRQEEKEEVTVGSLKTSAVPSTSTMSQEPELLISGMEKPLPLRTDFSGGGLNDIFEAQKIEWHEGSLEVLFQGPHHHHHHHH

For the compound `Nc1nc2c(ncn2[C@@H]2O[C@@H]3COP(=O)(O)O[C@H]4[C@@H](O)[C@H](n5nnc6c(N)ncnc65)O[C@@H]4COP(=O)(O)O[C@@H]2[C@@H]3O)c(=O)[nH]1` [Example 55, 2-amino-9-[(5R,7R,8R,12aR,14R,15R,15aS,16R)-14-(7-amino-3H-[1,2,3]triazolo[4,5-d]pyrimidin-3-yl)-2,10,15,16-tetrahydroxy-2,10-dioxidooctahydro-12H-5,8-methanofuro[3,2-l][1,3,6,9,11,2,10]pentaoxadiphosphacyclotetradecin-7-yl]-1,9-dihydro-6H-purin-6-one], in experiment [1] (setting [2]), the “% Effect at 30 μM relative to 2′3′-cGAMP” value is 83%. For the same compound, the EC50 on full-length HAQ STING (setting [3]) stood at 55.3 nM.

`C#C[C@@]12COP(=O)(O)OC3C(O)[C@@H](COP(=O)(O)OC1C(O)[C@H](n1cnc4c(N)ncnc41)O2)O[C@H]3n1cnc2c(=O)[nH]c(N)nc21` (stereo in doubt) [Example 12, (5R,7R,8R,12aR,14R,15R,15aS,16R)-7-(2-amino-6-oxo-1,6-dihydro-9H-purin-9-yl)-14-(6-amino-9H-purin-9-yl)-12a-ethynyl-15,16-dihydroxyoctahydro-12H-5,8-methanofuro[3,2-l][1,3,6,9,11,2,10] pentaoxadiphosphacyclotetradecine-2,10-diolate 2,10-dioxide]: the “% Effect at 30 μM relative to 2′3′-cGAMP” value in experiment [1] (setting [2]) was found to be 89%. Further, on full-length HAQ STING (setting [3]), the EC50 was less than 1 nM.

On to `Nc1nc2c(ncn2[C@@H]2O[C@@H]3COP(=O)(O)O[C@H]4[C@@H](O)[C@H](n5cnc6c(N)nc(F)nc65)O[C@@H]4COP(=O)(O)O[C@@H]2[C@@H]3O)c(=O)[nH]1` [Example 34, 2-amino-9-[(5R,7R,8R,12aR,14R,15R,15aS,16R)-14-(6-amino-2-fluoro-9H-purin-9-yl)-2,10,15,16-tetrahydroxy-2,10-dioxidooctahydro-12H-5,8-methanofuro[3,2-l][1,3,6,9,11,2,10]pentaoxadiphosphacyclotetradecin-7-yl]-1,9-dihydro-6H-purin-6-one], for which the “% Effect at 30 μM relative to 2′3′-cGAMP” value in experiment [1] (setting [2]) is 125%. Also, the EC50 on full-length HAQ STING (setting [3]) was 24.6 nM.

As to `Nc1nc2c(ncn2[C@@H]2O[C@@H]3COP(=O)(O)O[C@H]4[C@@H](O)[C@H](c5cnc6c(N)ncnn56)O[C@@H]4COP(=O)(O)O[C@@H]2[C@@H]3O)c(=O)[nH]1` [Example 40, 2-amino-9-[(5R,7R,8R,12aR,14S,15S,15aS,16R)-14-(4-aminoimidazo[2,1-f][1,2,4]triazin-7-yl)-2,10,15,16-tetrahydroxy-2,10-dioxidooctahydro-12H-5,8-methanofuro[3,2-l][1,3,6,9,11,2,10]pentaoxadiphosphacyclotetradecin-7-yl]-1,9-dihydro-6H-purin-6-one], the “% Effect at 30 μM relative to 2′3′-cGAMP” value in experiment [1] (setting [2]) was 77%. In addition, the EC50 at full-length HAQ STING (setting [3]) turned out to be 3.2 nM.

`Nc1nc2c(ncn2[C@@H]2O[C@@H]3COP(O)(=S)O[C@H]4C[C@H](n5cnc6c(=O)[nH]cnc65)O[C@@H]4COP(O)(=S)O[C@@H]2[C@@H]3F)c(=O)[nH]1` (single isomer, unassigned) [Example 305]: the “% Effect at 30 μM relative to 2′3′-cGAMP” value in experiment [1] turned out to be 50%. Also, at full-length HAQ STING (setting [4]), the EC50 turned out to be 326 nM.

With `Nc1nc2c(ncn2[C@@H]2O[C@@H]3COP(=O)(O)O[C@H]4[C@@H](O)[C@H](n5cnc6c(O)ncnc65)O[C@@H]4COP(=O)(O)O[C@@H]2[C@@H]3F)c(=O)[nH]1` [Example 300, 2-amino-9-[(5R,7R,8S,12aR,14R,15R,15aS,16R)-16-fluoro-2,10,15-trihydroxy-14-(6-hydroxy-9H-purin-9-yl)-2,10-dioxidooctahydro-12H-5,8-methanofuro[3,2-l] [1,3,6,9,11,2,10]pentaoxadiphosphacyclo-tetradecin-7-yl]-1,9-dihydro-6H-purin-6-one], the “% Effect at 30 μM relative to 2′3′-cGAMP” value in experiment [1] (setting [2]) turned out to be 86%. Further, at full-length HAQ STING (setting [3]), the EC50 was 5.1 nM.

Take `Nc1nc2c(ncn2[C@@H]2O[C@@H]3COP(=O)(S)O[C@H]4[C@H](F)[C@H](n5nnc6c(N)ncnc65)O[C@@H]4COP(=O)(S)O[C@@H]2C3)c(=O)[nH]1` (stereo partly drawn) [Example 138, 2-amino-9-[(5S,7R,8R,12aR,14R,15S,15aR)-14-(7-amino-3H-[1,2,3]triazolo[4,5-d]pyrimidin-3-yl)-15-fluoro-2,10-dioxido-2,10-disulfanyloctahydro-12H-5,8-methanofuro[3,2-l] [1,3,6,9,11,2,10]pentaoxadiphosphacyclotetra-decin-7-yl]-1,9-dihydro-6H-purin-6-one]: the “% Effect at 30 μM relative to 2′3′-cGAMP” value in experiment [1] (setting [2]) was determined as 51%. Moreover, on full-length HAQ STING (setting [3]), the EC50 was 739 nM.

For `Nc1nc2c(ncn2[C@@H]2O[C@@H]3COP(O)(=S)O[C@H]4[C@H](F)[C@H](n5cnc6c(=O)[nH]cnc65)O[C@@H]4COP(=O)(O)O[C@@H]2[C@@H]3F)c(=O)[nH]1` (stereo partly drawn) [Example 303, 2-amino-9-[(5R,7R,8S,12aR,14R,15S,15aR,16R)-15,16-difluoro-2,10-dihydroxy-10-oxido-14-(6-oxo-1,6-dihydro-9H-purin-9-yl)-2-sulfidooctahydro-12H-5,8-methanofuro[3,2-l][1,3,6,9,11,2,10]pentaoxadiphosphacyclotetradecin-7-yl]-1,9-dihydro-6H-purin-6-one], the “% Effect at 30 μM relative to 2′3′-cGAMP” value in experiment [1] is listed as 106%. Besides, the EC50 on full-length HAQ STING (setting [3]) was less than 1 nM.

On to `Nc1nc2c(ncn2[C@@H]2O[C@@H]3COP(=O)(O)O[C@H]4[C@H](Cl)[C@H](n5cnc6c(=O)[nH]cnc65)O[C@@H]4COP(=O)(O)O[C@@H]2[C@@H]3O)c(=O)[nH]1` [Example 322, 2-amino-9-[(5R,7R,8R,12aR,14R, 15S,15aR,16R)-15-chloro-2,10,16-trihydroxy-2,10-dioxido-14-(6-oxo-1,6-dihydro-9H-purin-9-yl)octahydro-12H-5,8-methanofuro[3,2-l][1,3,6,9,11,2,10]pentaoxadiphosphacyclotetradecin-7-yl]-1,9-dihydro-6H-purin-6-one], for which the “% Effect at 30 μM relative to 2′3′-cGAMP” value in experiment [1] (setting [2]) is given as 41%. The EC50 on full-length HAQ STING (setting [3]) is 68.8 nM.

Regarding `Nc1nc2c(ncn2[C@@H]2O[C@@]34COC3[C@@H]2OP(=O)(O)OC[C@H]2O[C@@H](n3cnc5c(N)ncnc53)[C@@H](O)C2OP(=O)(O)OC4)c(=O)[nH]1` (stereo partly drawn) [Example 17, 2-amino-9-[(2aR,5S,6aS,7R,8R,9aR,12S,14R,14aS,15R)-8-(6-amino-9H-purin-9-yl)-5,7,12-trihydroxy-5,12-dioxidohexahydro-6aH-2a,14-(epoxymethano)furo[3,2-d]oxeto[2,3-k][1,3,7,9,2,8]tetraoxadiphosphacyclotridecin-15(2H,3H)-yl]-1,9-dihydro-6H-purin-6-one], the “% Effect at 30 μM relative to 2′3′-cGAMP” value in experiment [1] (setting [2]) amounted to 81%. Moreover, on full-length HAQ STING (setting [3]), the EC50 stood at 121 nM.

Take `Nc1ncnc2c1ccn2[C@@H]1O[C@@H]2COP(=O)(O)O[C@@H]3C[C@@H](COP(=O)(O)O[C@H]2[C@H]1O)O[C@H]3n1cnc2c(=O)[nH]cnc21` [Example 67, 9-[(5S,7R,8R,12aR,14R,15R,15aS)-14-(4-amino-7H-pyrrolo[2,3-d]pyrimidin-7-yl)-2,10,15-trihydroxy-2,10-dioxidooctahydro-12H-5,8-methanofuro [3,2-l][1,3,6,9,11,2,10]pentaoxadiphosphacyclotetradecin-7-yl]-1,9-dihydro-6H-purin-6-one]: in experiment [1] (setting [2]), the “% Effect at 30 μM relative to 2′3′-cGAMP” value is reported as 111%. The EC50 on full-length HAQ STING (setting [3]) was 6.4 nM.

Turning to `Nc1ncnc2c1ncn2[C@@H]1O[C@@H]2COP(=O)(O)O[C@@H]3C[C@@H](COP(=O)(O)O[C@H]2[C@H]1O)O[C@H]3n1cnc2c(=O)[nH]cnc21` [Example 50, 9-[(5S,7R,8R,12aR,14R,15R,15aS)-14-(6-amino-9H-purin-9-yl)-2,10,15-trihydroxy-2,10-dioxidooctahydro-12H-5,8-methanofuro[3,2-l][1,3,6,9,11,2,10]pentaoxadiphosphacyclotetradecin-7-yl]-1,9-dihydro-6H-purin-6-one], the “% Effect at 30 μM relative to 2′3′-cGAMP” value in experiment [1] (setting [2]) is reported as 85%. For the same compound, the EC50 at full-length HAQ STING (setting [3]) is 2.7 nM.

Take `Nc1nc2c(ncn2[C@@H]2O[C@@H]3CO[P@@](=O)(S)O[C@H]4C[C@H](n5cnc6c(=O)[nH]cnc65)O[C@@H]4CO[P@@](=O)(S)O[C@@H]2[C@@H]3F)c(=O)[nH]1` (single isomer, unassigned) [Example 307]: in experiment [1], the “% Effect at 30 μM relative to 2′3′-cGAMP” value was 174%. Moreover, at full-length HAQ STING (setting [4]), the EC50 is less than 1 nM.

As for `[N-]=[N+]=N[C@H]1[C@H]2OP(=O)(O)OC[C@H]3O[C@@H](n4cnc5c(O)ncnc54)[C@H](O)[C@@H]3OP(=O)(O)OC[C@H]1O[C@H]2n1cnc2c(=O)[nH]c(N)nc21` [Example 302, 2-amino-9-[(5S,7R,8R,12aR,14R,15R,15aS,16R)-16-azido-2,10,15-trihydroxy-14-(6-hydroxy-9H-purin-9-yl)-2,10-dioxidooctahydro-12H-5,8-methanofuro[3,2-l] [1,3,6,9,11,2,10]pentaoxadiphosphacyclo-tetradecin-7-yl]-1,9-dihydro-6H-purin-6-one], the “% Effect at 30 μM relative to 2′3′-cGAMP” value in experiment [1] (setting [2]) was found to be 103%. For the same compound, at full-length HAQ STING (setting [3]), the EC50 amounted to 2.3 nM.

(Values after US11453697B1, “Cyclic di-nucleotide compounds as sting agonists” (Merck Sharp & Dohme Corp., priority 2015, dated 2022).)
